Test systems include HL-60(TB) leukemia; M14 melanoma; HCC-2998 colon; HOP-62 NSCLC; IGROV1 ovarian; SK-OV-3 ovarian; U251 CNS; UACC-62 melanoma; SN12C renal; COLO 205 colon.
Common to all, as to test: NCI-60 cell line screen, 48 h

Values joined by “and” are separate entries in the source; they are usually repeats but may differ in a detail not shown here. Equal entries are not always repeated.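 Five concentrations, 48 hours, 96-well plates. Abbreviation: GI50, concentration required for 50% inhibition of growth. Definition used: TGI = concentration required for complete inhibition of growth.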

For the molecule `C/C(=C\C1=C(Cl)C(=O)c2ccccc2C1=O)C(=O)O`, the GI50 with HL-60(TB) leukemia was 25.4 µM; in the assay with M14 melanoma, 17.7 µM; in the assay on HCC-2998 colon, 18.9 µM; in the assay with HOP-62 NSCLC it was 18.8 µM; with IGROV1 ovarian, 15.1 µM; in the assay on SK-OV-3 ovarian, 19 µM. Besides, the GI50 with U251 CNS is 15.8 µM; with UACC-62 melanoma, 17.2 µM; in the assay on SN12C renal, 24.5 µM; with COLO 205 colon, 18.7 µM. In addition, the TGI with HL-60(TB) leukemia came out at 63.5 µM; in the assay on M14 melanoma, 31.7 µM; in the assay with HCC-2998 colon, 33.3 µM; in the assay on HOP-62 NSCLC it was 33.7 µM; with IGROV1 ovarian it was 28.6 µM; with SK-OV-3 ovarian it was 33.1 µM. For the same molecule, the TGI in the assay on U251 CNS is 29.4 µM; with UACC-62 melanoma it was 31.5 µM; with SN12C renal it was 55.1 µM; in the assay with COLO 205 colon, 34 µM.

With `O=C(O)Cc1cccc2c1Oc1ccccc1S2`, the TGI in the assay on HL-60(TB) leukemia, in the assay on M14 melanoma, in the assay with HCC-2998 colon, in the assay on HOP-62 NSCLC, with IGROV1 ovarian and in the assay on SK-OV-3 ovarian was above 100 µM throughout. Moreover, the TGI with U251 CNS, in the assay on UACC-62 melanoma, with SN12C renal and with COLO 205 colon was above 100 µM each time.

As for `CN(C)CCOc1ccc(/C(=C(/CCCl)c2ccccc2)c2ccccc2)cc1`, the GI50 is 1.06 µM in the assay on HL-60(TB) leukemia; 0.96 µM with M14 melanoma; 0.776 µM with HCC-2998 colon; 0.993 µM with HOP-62 NSCLC; 1.33 µM in the assay on IGROV1 ovarian; 1.62 µM with SK-OV-3 ovarian. Further, the GI50 with U251 CNS was 0.815 µM; in the assay on UACC-62 melanoma, 0.891 µM; in the assay on SN12C renal, 1.57 µM; with COLO 205 colon, 0.858 µM. Also, the TGI in the assay on HL-60(TB) leukemia was 2.11 µM and 15 µM; in the assay with SK-OV-3 ovarian, 5.07 µM; in the assay with UACC-62 melanoma, 1.66 µM; with SN12C renal, 6.01 µM and 30.3 µM.

As for `CN=C(NC#N)NCCSCc1nc[nH]c1C`, the TGI in the assay on HL-60(TB) leukemia, in the assay with M14 melanoma, in the assay with HCC-2998 colon, in the assay with HOP-62 NSCLC, in the assay with IGROV1 ovarian and in the assay with SK-OV-3 ovarian was above 100 µM throughout. Also, the TGI with U251 CNS, with UACC-62 melanoma, with SN12C renal and with COLO 205 colon was above 100 µM each time.

Turning to `Cc1cnc(/C=N\NC(N)=S)c2cccc(N)c12`, the GI50 in the assay on HL-60(TB) leukemia was 0.752 µM; in the assay with M14 melanoma, 1.83 µM and 0.384 µM; in the assay with HOP-62 NSCLC, 2.89 µM; with IGROV1 ovarian, 2.4 µM; in the assay on SK-OV-3 ovarian, 3.14 µM; in the assay with U251 CNS it was 2 µM. The GI50 is 1.13 µM in the assay on UACC-62 melanoma, 1.51 µM in the assay on SN12C renal and 3.23 µM with COLO 205 colon. Besides, the TGI is 3.18 µM and 2.83 µM in the assay on HL-60(TB) leukemia; 4.41 µM and 1.75 µM in the assay on M14 melanoma; above 100 µM in the assay with HCC-2998 colon; above 100 µM in the assay on HOP-62 NSCLC; above 100 µM with IGROV1 ovarian; above 100 µM with SK-OV-3 ovarian. Further, the TGI in the assay on U251 CNS is above 100 µM; with UACC-62 melanoma it was 9.26 µM and 6.67 µM; in the assay on SN12C renal, > 26.5 µM and 4.35 µM; with COLO 205 colon it was above 100 µM.

On to `O=C1C2=Nc3ccccc3C(O)N2c2ccccc21` (stereo not drawn), for which the TGI in the assay on HL-60(TB) leukemia is 34.2 µM; with M14 melanoma it was above 100 µM; in the assay with HCC-2998 colon it was above 94.3 µM; in the assay with HOP-62 NSCLC it was above 100 µM; with IGROV1 ovarian, above 100 µM; with SK-OV-3 ovarian, above 100 µM. The TGI was above 100 µM with U251 CNS, 12.9 µM in the assay on UACC-62 melanoma, above 100 µM in the assay on SN12C renal and above 100 µM with COLO 205 colon.

Turning to `O=C1CCCC/C1=C1\C(=O)Nc2cc(F)ccc21`, the TGI in the assay with HL-60(TB) leukemia, with M14 melanoma, with HCC-2998 colon, in the assay with HOP-62 NSCLC, in the assay on IGROV1 ovarian and in the assay with SK-OV-3 ovarian was above 100 µM in each case. For the same molecule, the TGI in the assay on U251 CNS, in the assay with UACC-62 melanoma, in the assay on SN12C renal and in the assay with COLO 205 colon was above 100 µM each time.

For `C[C@@H]1CC[C@@H]2[C@@H]1[C@H](OC(=O)/C=C/c1ccccc1)[C@]1(C3CCCCC3)C[C@@H](NC(=O)CO)[C@@]2(C)O1`, the GI50 in the assay on HL-60(TB) leukemia was 21.5 µM; in the assay with M14 melanoma, 18.6 µM; in the assay with HCC-2998 colon, 18.3 µM; in the assay on HOP-62 NSCLC, 17.4 µM; with IGROV1 ovarian it was 17.9 µM; in the assay on SK-OV-3 ovarian it was 17.9 µM. The GI50 is 18.6 µM in the assay with U251 CNS, 16.2 µM in the assay on UACC-62 melanoma, 11.4 µM in the assay on SN12C renal and 16.6 µM with COLO 205 colon. Besides, the TGI in the assay on HL-60(TB) leukemia was determined as 40.4 µM; with M14 melanoma it was 35.6 µM; with HCC-2998 colon, 35.1 µM; in the assay on HOP-62 NSCLC it was 33.5 µM; in the assay with IGROV1 ovarian, 35.5 µM; in the assay with SK-OV-3 ovarian, 32.1 µM. Further, the TGI with U251 CNS came out at 34 µM; with UACC-62 melanoma it was 30.3 µM; in the assay with SN12C renal, 24.2 µM; in the assay on COLO 205 colon, 33.5 µM.

On to `CC(C)(C#N)c1cc(F)cc(C(=O)Nc2cc(Nc3ncccc3-c3ncnc4nc[nH]c34)ccc2F)c1`, for which the GI50 in the assay with HL-60(TB) leukemia was 0.123 µM; in the assay on M14 melanoma, 0.0682 µM; with HCC-2998 colon it was 1.12 µM; in the assay with HOP-62 NSCLC, 0.475 µM; in the assay on IGROV1 ovarian it was 0.684 µM; in the assay on SK-OV-3 ovarian it was above 10 µM. Besides, the GI50 is 3.55 µM in the assay on U251 CNS, 0.0841 µM with UACC-62 melanoma, 3.11 µM in the assay on SN12C renal and 0.109 µM in the assay on COLO 205 colon. For the same molecule, the TGI is above 10 µM in the assay on HL-60(TB) leukemia; 1.02 µM with M14 melanoma; above 10 µM with HCC-2998 colon; above 10 µM in the assay on HOP-62 NSCLC; above 10 µM in the assay on IGROV1 ovarian; above 10 µM in the assay on SK-OV-3 ovarian. Further, the TGI with U251 CNS, in the assay on UACC-62 melanoma, with SN12C renal and in the assay with COLO 205 colon was above 10 µM each time.

As to `CCSC1(SCC)CC(Cc2ccc(OC)cc2)N(C=NC(C)(C)C)C1` (stereo not drawn), the TGI in the assay on HL-60(TB) leukemia was 26.6 µM; in the assay on M14 melanoma, 32.2 µM; in the assay on HCC-2998 colon, 40.2 µM; in the assay with HOP-62 NSCLC, above 100 µM; in the assay on IGROV1 ovarian, above 100 µM; with SK-OV-3 ovarian, 83.6 µM. The TGI in the assay with U251 CNS was found to be 62.7 µM; in the assay on UACC-62 melanoma, 67 µM; with SN12C renal it was 84.4 µM; in the assay on COLO 205 colon, 74.6 µM.

`O=C(Nc1ccc(Cl)cc1F)c1cc(I)ccc1O`: the GI50 with HL-60(TB) leukemia is 1.66 µM; in the assay on M14 melanoma it was 0.711 µM; in the assay on HCC-2998 colon it was 3.1 µM; in the assay with HOP-62 NSCLC, 2.35 µM; in the assay with IGROV1 ovarian it was 1.51 µM; with SK-OV-3 ovarian it was 0.132 µM. The GI50 was 1.64 µM in the assay with U251 CNS, 0.448 µM in the assay with UACC-62 melanoma, 1.01 µM in the assay on SN12C renal and 4.52 µM with COLO 205 colon. Moreover, the TGI stood at 6.87 µM with HL-60(TB) leukemia; 5.57 µM in the assay with M14 melanoma; 11.9 µM with HCC-2998 colon; 8.04 µM in the assay with HOP-62 NSCLC; 50.4 µM in the assay on IGROV1 ovarian; 1.24 µM in the assay on SK-OV-3 ovarian. For the same molecule, the TGI in the assay with U251 CNS is 21.2 µM; in the assay with UACC-62 melanoma it was 2.19 µM; in the assay on SN12C renal it was 7.62 µM; in the assay with COLO 205 colon, 17.5 µM.

Consider `O=C([O][Hg][CH2]C1COC([CH2][Hg][O]C(=O)c2ccccc2)CO1)c1ccccc1` (stereo not drawn), for which the GI50 with HL-60(TB) leukemia was 1.68 µM and 1.82 µM; with M14 melanoma, 8.68 µM and 2.52 µM; with HCC-2998 colon it was 17.6 µM and 3.65 µM; in the assay on HOP-62 NSCLC, 19.2 µM and 20.7 µM; with IGROV1 ovarian, 8.71 µM; with SK-OV-3 ovarian, 17.6 µM. Moreover, the GI50 with U251 CNS is 4.46 µM and 13.5 µM; in the assay on UACC-62 melanoma, 16.7 µM and 2.26 µM; with SN12C renal, 12.2 µM and 1.54 µM; in the assay with COLO 205 colon, 1.98 µM and 1.07 µM. The TGI in the assay on HL-60(TB) leukemia is 4.54 µM and 21.6 µM; in the assay with M14 melanoma, 19.8 µM and 4.89 µM; in the assay with HCC-2998 colon, 32.2 µM and 9.35 µM; in the assay on HOP-62 NSCLC, 37.9 µM and 56.4 µM; in the assay with IGROV1 ovarian, 17.2 µM; in the assay with SK-OV-3 ovarian, 31.4 µM. Further, the TGI in the assay with U251 CNS is 10.8 µM and 27 µM; with UACC-62 melanoma, 30.4 µM and 5.09 µM; in the assay on SN12C renal, 24.6 µM and 3.02 µM; with COLO 205 colon, 4.25 µM and 5.21 µM.

For `O=C(c1ccco1)c1nc2cc(F)ccc2[n+]([O-])c1C(F)(F)F`, the GI50 was 18.4 µM in the assay on HL-60(TB) leukemia; 17.6 µM in the assay with M14 melanoma; 17 µM with HCC-2998 colon; 81.4 µM with HOP-62 NSCLC; 17.9 µM with IGROV1 ovarian; 35.3 µM in the assay with SK-OV-3 ovarian. The GI50 with U251 CNS is 35.5 µM; in the assay with UACC-62 melanoma it was 24.8 µM; with SN12C renal, 44.4 µM; in the assay with COLO 205 colon it was 16 µM. The TGI with HL-60(TB) leukemia is 49.2 µM; in the assay with M14 melanoma, 38.7 µM; with HCC-2998 colon it was 32 µM; in the assay on HOP-62 NSCLC it was above 100 µM; in the assay on IGROV1 ovarian it was 36.7 µM; in the assay with SK-OV-3 ovarian it was above 100 µM. Moreover, the TGI is above 100 µM in the assay with U251 CNS, 68.2 µM in the assay on UACC-62 melanoma, above 100 µM in the assay on SN12C renal and 32.7 µM in the assay with COLO 205 colon.

As to `CCCCCCCCOC(CO)CO`, the TGI in the assay on HL-60(TB) leukemia, with M14 melanoma, with HCC-2998 colon, in the assay with HOP-62 NSCLC, with IGROV1 ovarian and with SK-OV-3 ovarian was above 100 µM in each case. Further, the TGI in the assay with U251 CNS, in the assay with UACC-62 melanoma, in the assay with SN12C renal and in the assay on COLO 205 colon was above 100 µM in each case.

For the origin of these results see PubChem BioAssay (NCI).
